# According to US20250032525A1 (priority 2021, published 2025):
# Like-named read-outs stand apart in the source and are kept apart here.
# Legend:
# [1] = test system: BT-549; settings: BT-549, NCI-60 database, sulforhodamine B; read-out: Cytotoxic IC50; cited from earlier work
# [2] = test system: HS 578T; assay: In vitro cytotoxicity (PrestoBlue); settings: Homo sapiens
# Method: (§2) Cells were seeded in 40 μl medium on 384 well plates by an automatic liquid handling machine (Hamilton StarLet) in a density of 2500 cells/well. Adherent cells were cultured for 24 h before the addition of the compounds, while drugs were added to non-adherent cells 2 h after cell seeding. The drugs were serially diluted, and dispensed in an additional 20 μl. Cells were incubated for an additional 72 h, cytotoxicity was assessed by the PrestoBlue viability reagent (Thermo Fisher). Experiments were repeated at least 3 times.
# [3] = test system: MDA-MB-231; settings: MDA-MB-231, NCI-60 database, sulforhodamine B; read-out: Cytotoxic IC50; cited from earlier work
# [4] = test system: P388; assay: In vitro cytotoxicity; format: cell-based; settings: Mus musculus
# Excerpt: (§1) Experiments were repeated at least 3 times.
# [5] = test system: MES-SA/Dx5; assay: In vitro cytotoxicity; format: cell-based; settings: Homo sapiens
# Excerpt: as §1
# [6] = test system: MDA-MB-468; assay: In vitro cytotoxicity; format: cell-based; settings: Homo sapiens; MDA-MB-468 breast cancer cell line
# Excerpt: as §1
# [7] = test system: P388/ADR; assay: In vitro cytotoxicity; format: cell-based; settings: Mus musculus
# Excerpt: as §1
# [8] = test system: A431; assay: In vitro cytotoxicity; format: cell-based; settings: Homo sapiens, A-431
# Excerpt: as §1
# [9] = test system: A431-B1; assay: In vitro cytotoxicity; format: cell-based
# Excerpt: as §1
# [10] = test system: A431-G2; assay: In vitro cytotoxicity; format: cell-based
# Excerpt: as §1
# [11] = test system: MES-SA; assay: In vitro cytotoxicity; format: cell-based; settings: Homo sapiens
# Excerpt: as §1
# [12] = test system: T-47D; settings: NCI-60 database, sulforhodamine B, read-out: Cytotoxic IC50; cited from earlier work
# [13] = test system: HCT-15; settings: HCT-15, NCI-60 database, sulforhodamine B; read-out: Cytotoxic IC50; cited from earlier work
# [14] = test system: HCC-2998; settings: HCC-2998, NCI-60 database, sulforhodamine B; read-out: Cytotoxic IC50; cited from earlier work
# [15] = test system: MDA-MB-435; settings: MDA-MB-435, NCI-60 database, sulforhodamine B; read-out: Cytotoxic IC50; cited from earlier work
# [16] = test system: Brcal^−/−;p53^−/− tumors; settings: cited from earlier work
# [17] = test system: KM12; settings: KM12, NCI-60 database, sulforhodamine B; read-out: Cytotoxic IC50; cited from earlier work
# [18] = test system: T-47D; assay: In vitro cytotoxicity (PrestoBlue); settings: Homo sapiens, T47D
# Method: as §2
# [19] = test system: PANC-1; settings: PANC-1, from Varbanov et al. (2017), PrestoBlue; read-out: Cytotoxic IC50; cited from earlier work
# [20] = test system: 4T1-LUC mammary tumor; assay: Mouse 4T1 breast cancer model; format: in vivo, BALB/c mice; settings: 1 mg/kg LiPyDau, 5 mg/kg DOX, day 12 and 24; endpoint day 33
# Method: Mouse melanoma (B16), lung (Lewis lung carcinoma, LLC) and breast (4T1-LUC) cancer cell lines were used to establish allograft tumors for drug testing. 5×10^5 B16 or 2×10^5 LLC cells were inoculated subcutaneously in 200 μl serum-free culture media. 4T1-LUC tumors were established by injecting 1×10^6 cells in 20 μl serum-free culture media through the nipple directly to the breast tissue of 8 weeks old BALB/c mice on day 0). […] For the B16, LLC and 4T1-LUC tumor models 4, 6 and 6 mice were treated with LiPyDau while 4, 3 and 6 animals were in the saline treated groups, respectively.
# Growth of 4T1-LUC tumor was monitored by bioluminescence imaging. Images were taken 10 minutes after tail vein injection of 150 mg/kg dose of D-luciferin into the mouse.
# [21] = test system: BT-549; assay: In vitro cytotoxicity (PrestoBlue); settings: Homo sapiens
# Method: as §2
# [22] = In vivo toxicity (dose-finding) studies; design: species or system FVB mice; settings: for Mortality (%) / Survival: single iv
# Excerpt: PyDau and LiPyDau dose-finding studies were done using 10 weeks old FVB mice, by single intravenous injections of different doses of the compounds (3 mouse/dose) via the tail vein. The status of the mice was monitored daily for signs of pain or discomfort. Mice were euthanized at 20% body weight loss or at a low score (1 or 2) on the Body Condition Scoring scale. Survival was followed for 30 days and the Maximum Tolerable Dose (MTD) was defined as the highest dose where 100% survival was observed.
# [23] = test system: HCT-15; assay: In vitro cytotoxicity (PrestoBlue); format: cell-based, human; settings: HCT-15, 72 h, read-out: Cytotoxic IC50
# Excerpt: as §1
# [24] = test system: HT29; assay: In vitro cytotoxicity (PrestoBlue); format: cell-based, human; settings: HT29, 72 h, read-out: Cytotoxic IC50
# Excerpt: as §1
# [25] = test system: MCF7; assay: In vitro cytotoxicity (PrestoBlue); settings: Homo sapiens, MCF7, 72 h, read-out: Cytotoxic IC50
# Method: as §2
smiles,measurement,setting,value
"COc1cccc2c1C(=O)c1c(O)c3c(c(O)c1C2=O)C[C@@](O)(C(=O)CO)C[C@@H]3O[C@H]1C[C@H](N)[C@H](O)[C@H](C)O1 [DOX, doxorubicin]",IC50,[1],0.212 µM
same,IC50,[2],0.08 µM
same,IC50,[3],0.383 µM
same,IC50,[4],0.15 µM
same,IC50,"[5]; MES-SA/Dx5, read-out: IC50",2.88 µM
same,IC50,"[5]; MES-SA/Dx5, presence of 1 μM tariquidar, read-out: IC50 + TQ",0.02 µM
same,IC50,[6],0.02 µM
same,IC50,[7]; read-out: IC50,2.04 µM
same,IC50,"[7]; read-out: IC50 + TQ, heading: IC50 + TQ, presence of 1 μM tariquidar",0.69 µM
same,IC50,[8],0.065 µM
same,IC50,[9],2.45 µM
same,IC50,[10],0.17 µM
same,IC50,"[11]; presence of 1 μM tariquidar, read-out: IC50 + TQ",0.02 µM
same,IC50,[11]; read-out: IC50,0.072 µM
same,IC50,[12],0.083 µM
same,IC50,[13],1.2 µM
same,IC50,[14],0.181 µM
same,IC50,[15],0.258 µM
same,Outcome of treatment at MTD,"[16]; DOX 5 mg/kg, PLD 8 mg/kg, FIG. 10 from Füredi et al.",all tumors developed resistance
same,Maximum tolerable dose (MTD),"[16]; iv., FVB mice with Brcal^−/−;p53^−/− tumors",5 mg/kg
same,IC50,[17],0.223 µM
same,IC50,[18],0.03 µM
same,IC50,[19],0.46 µM
same,Tumor growth / tumor cell viability,[20],small but significant effect on the growth of tumors
same,IC50,[21]; BT-549,0.02 µM
"COc1cccc2c1C(=O)c1c(O)c3c(c(O)c1C2=O)C[C@@](O)(C(C)=O)C[C@@H]3O[C@H]1C[C@H]2[C@H](OC3CCCN32)[C@H](C)O1 (stereo partly drawn) [PyDau, 2-deamino-2-pyrrolino-daunorubicin]",IC50,"[2]; 72 h, read-out: Cytotoxic IC50",0.00177 µM
same,Lethality,"[22]; 3, 2, 1 and 0.5 mg/kg",lethal
same,Mortality (%),[22]; PyDau dose 0.05 mg/kg,0%
same,Survival,[22]; PyDau dose 0.05 mg/kg,>30 days
same,Mortality (%),[22]; PyDau dose 0.1 mg/kg,0%
same,Survival,[22]; PyDau dose 0.1 mg/kg,>30 days
same,Mortality (%),[22]; PyDau dose 0.17 mg/kg,0%
same,Survival,[22]; PyDau dose 0.17 mg/kg,>30 days
same,Mortality (%),[22]; PyDau dose 0.25 mg/kg,0%
same,Survival,[22]; PyDau dose 0.25 mg/kg,>30 days
same,Mortality (%),[22]; PyDau dose 0.5 mg/kg,100%
same,Survival,[22]; PyDau dose 0.5 mg/kg,11 days
same,Mortality (%),[22]; PyDau dose 1 mg/kg,100%
same,Survival,[22]; PyDau dose 1 mg/kg,4 days
same,Mortality (%),[22]; PyDau dose 2 mg/kg,100%
same,Survival,[22]; PyDau dose 2 mg/kg,2 days
same,Mortality (%),[22]; PyDau dose 3 mg/kg,100%
same,Survival,[22]; PyDau dose 3 mg/kg,2 days
same,Safety window,[22]; dose-finding studies in mice,too narrow
same,MTD at 30 days,"[22]; mouse, in vivo, single intravenous injection, FVB mice, highest dose with 100% survival over 30 days, read-out: Maximum Tolerable Dose (MTD)",0.25 mg/kg
same,IC50,[5]; MES-SA/Dx5,0.00251 µM
same,IC50,[11],0.00135 µM
same,IC50,[23],0.00242 µM
same,IC50,[23]; Homo sapiens,0.00286 µM
same,IC50,[24],0.00353 µM
same,IC50,"[24]; Homo sapiens, HT-29, 72 h",0.00305 µM
same,IC50,"[18]; 72 h, read-out: Cytotoxic IC50",0.00425 µM
same,IC50,[25],0.00573 µM
same,IC50,"[21]; BT-549, 72 h, read-out: Cytotoxic IC50",0.00468 µM
